From US20120122860A1, “SOLID FORMS OF SULFONAMIDES AND AMINO ACIDS” (Plexxikon, Inc., priority 2009, published 2012)

Legend:
B-Raf V600E = B-Raf V600E (Homo sapiens, UniProt P15056, V600E); experiment: Kinase activity assay, B-Raf V600E; type: biochemical; details: read-out: activity toward kinase B-Raf V600E, IC50
Btk = Btk (Homo sapiens, UniProt Q06187); experiment: Kinase activity assay, Btk
Fms = Fms (Homo sapiens, UniProt P07333); experiment: Kinase activity assay, Fms
TEC = target: T1, TEC (Homo sapiens, UniProt P42680); experiment: Kinase activity assay, TEC
T1 sequence (P42680 1-631): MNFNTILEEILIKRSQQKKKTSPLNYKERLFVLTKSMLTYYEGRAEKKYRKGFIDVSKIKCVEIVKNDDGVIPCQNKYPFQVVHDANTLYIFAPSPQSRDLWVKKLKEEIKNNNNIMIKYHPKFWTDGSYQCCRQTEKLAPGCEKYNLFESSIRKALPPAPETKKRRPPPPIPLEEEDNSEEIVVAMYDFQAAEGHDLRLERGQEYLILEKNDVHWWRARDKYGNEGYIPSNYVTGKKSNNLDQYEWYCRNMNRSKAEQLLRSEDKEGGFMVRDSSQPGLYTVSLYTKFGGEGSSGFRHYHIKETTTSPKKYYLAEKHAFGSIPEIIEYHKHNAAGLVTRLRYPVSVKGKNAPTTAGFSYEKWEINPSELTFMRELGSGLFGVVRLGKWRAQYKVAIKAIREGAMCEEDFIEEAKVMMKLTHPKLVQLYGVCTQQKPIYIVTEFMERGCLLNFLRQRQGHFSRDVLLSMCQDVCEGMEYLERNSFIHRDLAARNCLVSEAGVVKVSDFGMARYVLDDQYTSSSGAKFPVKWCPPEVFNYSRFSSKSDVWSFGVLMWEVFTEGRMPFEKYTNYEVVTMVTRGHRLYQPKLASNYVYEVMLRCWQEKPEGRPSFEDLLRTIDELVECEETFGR

MAP4K4 = MAP4K4 (Homo sapiens, UniProt O95819); experiment: Kinase activity assay, MAP4K4
B-Raf = B-Raf (Homo sapiens, UniProt P15056); experiment: Kinase activity assay, B-Raf; type: biochemical; details: read-out: activity toward kinase B-Raf, IC50
Chain of B-Raf (P15056 whole entry): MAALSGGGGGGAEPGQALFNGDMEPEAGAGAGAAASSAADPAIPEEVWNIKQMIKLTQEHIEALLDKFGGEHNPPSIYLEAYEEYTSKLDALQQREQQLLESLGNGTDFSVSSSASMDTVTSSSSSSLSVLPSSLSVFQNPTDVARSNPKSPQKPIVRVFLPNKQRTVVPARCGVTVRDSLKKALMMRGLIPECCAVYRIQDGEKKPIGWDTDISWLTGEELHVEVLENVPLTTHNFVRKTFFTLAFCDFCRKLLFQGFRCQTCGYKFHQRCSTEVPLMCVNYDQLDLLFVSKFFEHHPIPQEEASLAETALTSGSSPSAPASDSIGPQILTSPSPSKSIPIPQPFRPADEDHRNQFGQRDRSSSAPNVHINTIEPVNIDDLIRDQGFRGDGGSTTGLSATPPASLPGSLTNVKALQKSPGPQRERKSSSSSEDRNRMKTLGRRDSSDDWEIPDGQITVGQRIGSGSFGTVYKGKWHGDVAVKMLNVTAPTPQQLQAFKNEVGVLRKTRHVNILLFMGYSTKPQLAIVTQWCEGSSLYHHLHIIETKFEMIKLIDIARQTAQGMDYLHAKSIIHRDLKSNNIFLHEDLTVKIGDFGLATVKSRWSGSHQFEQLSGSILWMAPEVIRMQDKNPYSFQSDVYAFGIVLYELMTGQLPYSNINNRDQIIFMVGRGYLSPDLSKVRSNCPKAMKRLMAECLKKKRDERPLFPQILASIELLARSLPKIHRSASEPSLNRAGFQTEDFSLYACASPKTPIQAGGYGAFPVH

Kdr = Kdr (Homo sapiens, UniProt P35968); experiment: Kinase activity assay, Kdr
Chain of Kdr (P35968 20-1356): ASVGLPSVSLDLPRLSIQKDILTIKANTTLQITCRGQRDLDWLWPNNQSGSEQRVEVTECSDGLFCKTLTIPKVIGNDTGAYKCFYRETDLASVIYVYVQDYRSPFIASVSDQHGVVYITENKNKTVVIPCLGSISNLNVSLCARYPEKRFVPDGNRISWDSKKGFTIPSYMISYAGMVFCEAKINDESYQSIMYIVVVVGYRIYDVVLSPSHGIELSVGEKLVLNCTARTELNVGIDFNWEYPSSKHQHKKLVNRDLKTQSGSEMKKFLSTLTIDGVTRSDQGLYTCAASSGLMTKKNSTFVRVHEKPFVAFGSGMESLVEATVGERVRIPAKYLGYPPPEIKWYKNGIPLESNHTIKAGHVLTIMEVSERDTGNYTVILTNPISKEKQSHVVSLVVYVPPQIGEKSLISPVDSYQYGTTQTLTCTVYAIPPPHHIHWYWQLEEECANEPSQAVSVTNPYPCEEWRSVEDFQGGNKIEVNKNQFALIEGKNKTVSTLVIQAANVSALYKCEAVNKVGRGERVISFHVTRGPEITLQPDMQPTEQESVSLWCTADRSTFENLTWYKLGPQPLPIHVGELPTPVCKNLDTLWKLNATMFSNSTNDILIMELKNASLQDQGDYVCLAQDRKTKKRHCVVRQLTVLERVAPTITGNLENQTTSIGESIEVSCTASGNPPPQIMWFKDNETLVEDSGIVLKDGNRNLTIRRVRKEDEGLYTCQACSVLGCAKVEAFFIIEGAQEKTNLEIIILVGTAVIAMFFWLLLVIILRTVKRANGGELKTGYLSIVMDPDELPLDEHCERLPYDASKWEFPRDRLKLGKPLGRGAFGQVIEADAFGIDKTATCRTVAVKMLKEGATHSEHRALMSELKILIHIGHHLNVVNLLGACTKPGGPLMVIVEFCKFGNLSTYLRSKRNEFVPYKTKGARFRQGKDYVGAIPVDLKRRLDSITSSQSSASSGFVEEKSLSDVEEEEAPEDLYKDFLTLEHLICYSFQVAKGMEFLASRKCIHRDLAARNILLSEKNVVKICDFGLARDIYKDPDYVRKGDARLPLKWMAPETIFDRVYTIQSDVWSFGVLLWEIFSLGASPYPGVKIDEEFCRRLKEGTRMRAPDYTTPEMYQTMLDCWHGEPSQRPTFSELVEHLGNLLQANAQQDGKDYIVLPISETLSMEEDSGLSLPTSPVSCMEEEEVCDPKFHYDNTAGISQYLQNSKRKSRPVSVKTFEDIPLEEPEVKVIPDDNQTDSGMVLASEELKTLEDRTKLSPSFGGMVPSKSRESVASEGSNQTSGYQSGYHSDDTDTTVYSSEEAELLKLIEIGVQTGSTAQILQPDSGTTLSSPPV

Flt1 = Flt1 (Homo sapiens, UniProt P17948); experiment: Kinase activity assay, Flt1
Kit = Kit (Homo sapiens, UniProt P10721); experiment: Kinase activity assay, Kit
Chain of Kit (P10721 26-976): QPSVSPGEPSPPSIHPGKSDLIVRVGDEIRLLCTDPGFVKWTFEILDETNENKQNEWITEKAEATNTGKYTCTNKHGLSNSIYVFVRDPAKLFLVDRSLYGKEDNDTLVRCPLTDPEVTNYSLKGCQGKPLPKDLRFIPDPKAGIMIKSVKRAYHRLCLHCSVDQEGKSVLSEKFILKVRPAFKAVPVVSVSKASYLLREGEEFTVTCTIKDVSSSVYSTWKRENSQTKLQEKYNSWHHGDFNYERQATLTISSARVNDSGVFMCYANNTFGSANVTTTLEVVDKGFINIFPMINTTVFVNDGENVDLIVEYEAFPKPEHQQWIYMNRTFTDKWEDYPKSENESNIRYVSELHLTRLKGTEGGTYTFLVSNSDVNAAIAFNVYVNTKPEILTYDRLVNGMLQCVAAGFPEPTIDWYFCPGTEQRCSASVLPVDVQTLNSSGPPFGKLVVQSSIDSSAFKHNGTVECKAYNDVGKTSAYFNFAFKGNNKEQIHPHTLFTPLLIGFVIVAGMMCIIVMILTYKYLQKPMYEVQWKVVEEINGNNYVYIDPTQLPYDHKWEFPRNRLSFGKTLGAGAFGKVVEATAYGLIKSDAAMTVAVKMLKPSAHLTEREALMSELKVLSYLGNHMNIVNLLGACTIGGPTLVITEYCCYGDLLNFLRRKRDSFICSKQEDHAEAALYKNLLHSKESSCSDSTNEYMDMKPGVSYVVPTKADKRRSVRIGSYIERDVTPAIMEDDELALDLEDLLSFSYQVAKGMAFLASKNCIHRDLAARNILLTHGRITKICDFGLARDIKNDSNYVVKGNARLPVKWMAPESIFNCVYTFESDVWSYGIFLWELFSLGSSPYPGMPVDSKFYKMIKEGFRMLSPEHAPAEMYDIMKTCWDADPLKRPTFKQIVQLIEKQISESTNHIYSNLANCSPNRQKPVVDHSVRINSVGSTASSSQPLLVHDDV

Src = Src (Homo sapiens, UniProt P12931); experiment: Kinase activity assay, Src
Chain of Src (P12931 whole entry): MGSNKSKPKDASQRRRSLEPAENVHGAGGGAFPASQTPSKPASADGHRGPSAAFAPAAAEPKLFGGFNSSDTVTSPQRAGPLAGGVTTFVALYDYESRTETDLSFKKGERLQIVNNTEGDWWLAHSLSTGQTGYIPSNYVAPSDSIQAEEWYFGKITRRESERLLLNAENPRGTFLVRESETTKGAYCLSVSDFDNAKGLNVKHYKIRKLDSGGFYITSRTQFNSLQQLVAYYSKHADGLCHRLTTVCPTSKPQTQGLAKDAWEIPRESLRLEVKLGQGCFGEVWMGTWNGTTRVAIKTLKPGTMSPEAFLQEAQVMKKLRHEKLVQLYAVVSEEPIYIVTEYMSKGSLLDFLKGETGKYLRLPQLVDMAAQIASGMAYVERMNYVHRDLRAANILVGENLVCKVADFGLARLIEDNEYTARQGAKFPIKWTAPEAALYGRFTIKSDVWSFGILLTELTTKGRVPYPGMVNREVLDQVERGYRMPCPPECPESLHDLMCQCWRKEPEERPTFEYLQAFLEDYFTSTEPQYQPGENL

C-Raf = C-Raf (Homo sapiens, UniProt P04049); experiment: Kinase activity assay, C-Raf
Chain of C-Raf (P04049 whole entry): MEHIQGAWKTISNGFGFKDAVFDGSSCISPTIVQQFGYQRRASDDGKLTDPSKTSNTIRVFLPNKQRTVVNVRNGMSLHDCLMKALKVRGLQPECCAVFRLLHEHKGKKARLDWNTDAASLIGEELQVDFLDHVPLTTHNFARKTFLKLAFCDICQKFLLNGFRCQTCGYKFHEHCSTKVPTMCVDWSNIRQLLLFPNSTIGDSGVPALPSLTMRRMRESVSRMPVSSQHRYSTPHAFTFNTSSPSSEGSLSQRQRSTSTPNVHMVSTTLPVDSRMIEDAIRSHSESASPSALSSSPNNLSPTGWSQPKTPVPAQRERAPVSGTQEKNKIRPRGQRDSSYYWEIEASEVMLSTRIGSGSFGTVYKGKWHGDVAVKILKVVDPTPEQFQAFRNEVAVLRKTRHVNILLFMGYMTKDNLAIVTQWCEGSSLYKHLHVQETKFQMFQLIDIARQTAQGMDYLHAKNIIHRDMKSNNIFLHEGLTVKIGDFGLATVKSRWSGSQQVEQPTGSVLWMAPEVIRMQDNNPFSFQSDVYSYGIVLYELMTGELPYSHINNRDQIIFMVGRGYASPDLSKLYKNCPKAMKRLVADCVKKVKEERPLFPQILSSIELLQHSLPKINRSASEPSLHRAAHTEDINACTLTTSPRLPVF

A-Raf = target: T2, A-Raf (Homo sapiens, UniProt P10398); experiment: Kinase activity assay, A-Raf
T2 sequence (P10398 1-606): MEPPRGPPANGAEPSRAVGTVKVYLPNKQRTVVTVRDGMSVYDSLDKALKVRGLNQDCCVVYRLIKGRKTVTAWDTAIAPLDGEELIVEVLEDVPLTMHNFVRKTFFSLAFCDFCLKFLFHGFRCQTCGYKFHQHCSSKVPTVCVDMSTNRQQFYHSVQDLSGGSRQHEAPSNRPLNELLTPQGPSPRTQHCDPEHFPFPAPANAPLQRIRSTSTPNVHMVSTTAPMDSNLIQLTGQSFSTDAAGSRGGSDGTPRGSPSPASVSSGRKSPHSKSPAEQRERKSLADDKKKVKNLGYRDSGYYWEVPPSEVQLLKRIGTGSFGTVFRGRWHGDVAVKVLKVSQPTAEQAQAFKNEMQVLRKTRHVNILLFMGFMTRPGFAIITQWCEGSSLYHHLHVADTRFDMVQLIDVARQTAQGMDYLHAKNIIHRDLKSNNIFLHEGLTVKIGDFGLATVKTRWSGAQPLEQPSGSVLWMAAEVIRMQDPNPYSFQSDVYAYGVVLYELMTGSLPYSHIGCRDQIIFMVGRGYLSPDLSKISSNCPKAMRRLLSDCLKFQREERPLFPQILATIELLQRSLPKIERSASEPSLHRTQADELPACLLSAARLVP

Chain of Btk (Q06187 whole entry): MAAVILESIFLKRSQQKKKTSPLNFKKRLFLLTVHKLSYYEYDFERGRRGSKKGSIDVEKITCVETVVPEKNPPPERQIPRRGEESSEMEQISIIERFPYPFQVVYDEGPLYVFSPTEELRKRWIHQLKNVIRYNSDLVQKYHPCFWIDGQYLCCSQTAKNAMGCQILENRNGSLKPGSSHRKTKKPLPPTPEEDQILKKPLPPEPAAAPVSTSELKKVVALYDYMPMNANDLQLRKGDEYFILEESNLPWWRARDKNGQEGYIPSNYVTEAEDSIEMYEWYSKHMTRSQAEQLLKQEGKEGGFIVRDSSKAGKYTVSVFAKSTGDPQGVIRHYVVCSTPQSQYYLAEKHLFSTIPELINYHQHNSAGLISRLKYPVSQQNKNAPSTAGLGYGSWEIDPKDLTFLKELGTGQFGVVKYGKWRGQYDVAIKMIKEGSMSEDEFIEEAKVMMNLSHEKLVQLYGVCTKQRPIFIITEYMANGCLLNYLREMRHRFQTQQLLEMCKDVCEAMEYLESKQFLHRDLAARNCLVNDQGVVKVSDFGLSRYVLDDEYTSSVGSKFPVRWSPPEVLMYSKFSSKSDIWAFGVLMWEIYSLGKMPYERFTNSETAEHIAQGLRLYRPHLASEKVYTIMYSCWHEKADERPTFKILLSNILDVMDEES
Chain of B-Raf V600E (P15056 whole entry V600E): as the sequence (P15056 whole entry) above, with V600E counted along it

| IC50 (B-Raf V600E) | IC50 (Btk) | IC50 (Fms) | IC50 (TEC) | IC50 (MAP4K4) | IC50 (B-Raf) | IC50 (Kdr) | IC50 (Flt1) | IC50 (Kit) | IC50 (Src) | IC50 (C-Raf) | IC50 (A-Raf) | Compound |
| --- | --- | --- | --- | --- | --- | --- | --- | --- | --- | --- | --- | --- |
| ≤ 10 µM | – | ≤ 10 µM | – | – | ≤ 10 µM | ≤ 10 µM | ≤ 10 µM | ≤ 10 µM | ≤ 10 µM | ≤ 10 µM | – | CCCS(=O)(=O)Nc1ccc(F)c(C(=O)c2c[nH]c3ncc(-c4ccc(C)nc4)cc23)c1F [P-2213, Propane-1-sulfonic acid {2,4-difluoro-3-[5-(6-methyl-pyridin-3-yl)-1H-pyrrolo[2,3-b]pyridine-3-carbonyl]-phenyl}-amide] |
| ≤ 10 µM | – | ≤ 10 µM | – | ≤ 10 µM | ≤ 10 µM | ≤ 10 µM | ≤ 10 µM | ≤ 10 µM | ≤ 10 µM | ≤ 10 µM | – | CCCS(=O)(=O)Nc1ccc(F)c(C(=O)c2c[nH]c3ncc(-c4ccc(OCCO)nc4)cc23)c1F [P-2215, Propane-1-sulfonic acid (2,4-difluoro-3-{5-[6-(2-hydroxy-ethoxy)-pyridin-3-yl]-1H-pyrrolo[2,3-b]pyridine-3-carbonyl}-phenyl)-amide] |
| ≤ 10 µM | – | ≤ 10 µM | – | – | ≤ 10 µM | ≤ 10 µM | ≤ 10 µM | ≤ 10 µM | ≤ 10 µM | ≤ 10 µM | – | CCCS(=O)(=O)Nc1ccc(F)c(C(=O)c2c[nH]c3ncc(-c4ccc(OCCCN(CC)CC)nc4)cc23)c1F [P-2216, Propane-1-sulfonic acid (3-{5-[6-(3-diethylamino-propoxy)-pyridin-3-yl]-1H-pyrrolo[2,3-b]pyridine-3-carbonyl}-2,4-difluoro-phenyl)-amide] |
| ≤ 10 µM | ≤ 10 µM | ≤ 10 µM | ≤ 10 µM | – | ≤ 10 µM | ≤ 10 µM | ≤ 10 µM | ≤ 10 µM | ≤ 10 µM | – | – | CC(C)CS(=O)(=O)Nc1ccc(F)c(C(=O)c2c[nH]c3ncc(-c4cnn(C)c4)cc23)c1F [P-2299, 2-Methyl-propane-1-sulfonic acid {2,4-difluoro-3-[5-(1-methyl-1H-pyrazol-4-yl)-1H-pyrrolo[2,3-b]pyridine-3-carbonyl]-phenyl}-amide] |
| ≤ 10 µM | – | ≤ 10 µM | ≤ 10 µM | ≤ 10 µM | ≤ 10 µM | ≤ 10 µM | ≤ 10 µM | ≤ 10 µM | – | ≤ 10 µM | – | CCCCS(=O)(=O)Nc1ccc(F)c(C(=O)c2c[nH]c3ncc(-c4cnn(C)c4)cc23)c1Cl [P-2430, Butane-1-sulfonic acid {2-chloro-4-fluoro-3-[5-(1-methyl-1H-pyrazol-4-yl)-1H-pyrrolo[2,3-b]pyridine-3-carbonyl]-phenyl}-amide] |
| ≤ 10 µM | ≤ 10 µM | ≤ 10 µM | ≤ 10 µM | ≤ 10 µM | ≤ 10 µM | ≤ 10 µM | ≤ 10 µM | ≤ 10 µM | ≤ 10 µM | ≤ 10 µM | – | CCCCS(=O)(=O)Nc1ccc(F)c(C(=O)c2c[nH]c3ncc(-c4cnn(C)c4)cc23)c1 [P-2432, Butane-1-sulfonic acid {4-fluoro-3-[5-(1-methyl-1H-pyrazol-4-yl)-1H-pyrrolo[2,3-b]pyridine-3-carbonyl]-phenyl}-amide] |
| ≤ 10 µM | ≤ 10 µM | ≤ 10 µM | ≤ 10 µM | ≤ 10 µM | ≤ 10 µM | ≤ 10 µM | ≤ 10 µM | ≤ 10 µM | ≤ 10 µM | ≤ 10 µM | – | Cn1cc(-c2cnc3[nH]cc(C(=O)c4cc(NS(=O)(=O)C5CCCCC5)ccc4F)c3c2)cn1 [P-2434, Cyclohexanesulfonic acid {4-fluoro-3-[5-(1-methyl-1H-pyrazol-4-yl)-1H-pyrrolo[2,3-b]pyridine-3-carbonyl]-phenyl}-amide] |
| ≤ 10 µM | ≤ 10 µM | ≤ 10 µM | ≤ 10 µM | ≤ 10 µM | – | ≤ 10 µM | ≤ 10 µM | ≤ 10 µM | ≤ 10 µM | – | – | Cn1cc(-c2cnc3[nH]cc(C(=O)c4cccc(NS(=O)(=O)C5CCCCC5)c4)c3c2)cn1 [P-2457, Cyclohexanesulfonic acid {3-[5-(1-methyl-1H-pyrazol-4-yl)-1H-pyrrolo[2,3-b]pyridine-3-carbonyl]-phenyl}-amide] |

The remaining lines, values behind:

| Compound | IC50 (B-Raf V600E) | IC50 (Btk) | IC50 (Fms) | IC50 (TEC) | IC50 (MAP4K4) | IC50 (B-Raf) | IC50 (Kdr) | IC50 (Flt1) | IC50 (Kit) | IC50 (Src) | IC50 (C-Raf) | IC50 (A-Raf) |
| --- | --- | --- | --- | --- | --- | --- | --- | --- | --- | --- | --- | --- |
| Cn1cc(-c2cnc3[nH]cc(C(=O)c4c(F)ccc(NS(=O)(=O)c5cccc(OC(F)F)c5)c4Cl)c3c2)cn1 [P-2099, N-{2-Chloro-4-fluoro-3-[5-(1-methyl-1H-pyrazol-4-yl)-1H-pyrrolo[2,3-b]pyridine-3-carbonyl]-phenyl}-3-difluoromethoxy-benzenesulfonamide] | ≤ 10 µM | ≤ 10 µM | ≤ 10 µM | ≤ 10 µM | ≤ 10 µM | ≤ 10 µM | ≤ 10 µM | ≤ 10 µM | ≤ 10 µM | – | – | – |
| Cn1cc(-c2cnc3[nH]cc(C(=O)c4cc(NS(=O)(=O)c5ccc(F)cc5)ccc4F)c3c2)cn1 [P-2100, 4-Fluoro-N-{4-fluoro-3-[5-(1-methyl-1H-pyrazol-4-yl)-1H-pyrrolo[2,3-b]pyridine-3-carbonyl]-phenyl}-benzenesulfonamide] | ≤ 10 µM | ≤ 10 µM | ≤ 10 µM | – | – | – | ≤ 10 µM | ≤ 10 µM | ≤ 10 µM | ≤ 10 µM | – | – |
| CCCS(=O)(=O)Nc1ccc(F)c(C(=O)c2c[nH]c3ncc(-c4cnc(N(C)C)nc4)cc23)c1F [P-2196, Propane-1-sulfonic acid {3-[5-(2-dimethylamino-pyrimidin-5-yl)-1H-pyrrolo[2,3-b]pyridine-3-carbonyl]-2,4-difluoro-phenyl}-amide] | ≤ 10 µM | – | – | – | – | ≤ 10 µM | ≤ 10 µM | ≤ 10 µM | – | ≤ 10 µM | ≤ 10 µM | ≤ 10 µM |
| CCCS(=O)(=O)Nc1ccc(F)c(C(=O)c2c[nH]c3ncc(-c4cnc(OC)nc4OC)cc23)c1F [P-2199, Propane-1-sulfonic acid {3-[5-(2,4-dimethoxy-pyrimidin-5-yl)-1H-pyrrolo[2,3-b]pyridine-3-carbonyl]-2,4-difluoro-phenyl}-amide] | ≤ 10 µM | ≤ 10 µM | ≤ 10 µM | ≤ 10 µM | ≤ 10 µM | ≤ 10 µM | ≤ 10 µM | ≤ 10 µM | ≤ 10 µM | – | ≤ 10 µM | – |
| CCCS(=O)(=O)Nc1ccc(F)c(C(=O)c2c[nH]c3nccc(OC)c23)c1F [P-2210, Propane-1-sulfonic acid [2,4-difluoro-3-(4-methoxy-1H-pyrrolo[2,3-b]pyridine-3-carbonyl)-phenyl]-amide] | ≤ 10 µM | – | – | – | – | ≤ 10 µM | ≤ 10 µM | ≤ 10 µM | – | ≤ 10 µM | ≤ 10 µM | ≤ 10 µM |
